# Experimental data: patent US20200055839A1 (priority 2017, published 2020)
# System: NL-RLuc virus
# Assay: Inhibition of HIV replication (NL-RLuc virus, luciferase readout in MT-2 cells)
# Format: cell-based
# Conditions: Human immunodeficiency virus 1, MT2, 120 h, MT-2 cells infected with NL-RLuc virus, 5 days of incubation, 10% FBS, at least 2 experiments
# Summary of the method: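 EC50 derived via median effect equation from at least 2 experiments, using luciferase expression as virus-growth readout. Replication-competent NL-RLuc reporter virus (nef partly replaced by Renilla luciferase) infected MT-2 cells with serial compound dilutions; 5-day incubation in RPMI 1640 plus 10% FBS.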
row,SMILES,EC50 [nM]
1,"Cc1ncc(-c2ccc3ccccc3n2)c(N2CCC(C)(C)CC2)c1[C@H](OC(C)(C)C)C(=O)O [Example 266, (S)-2-(tert-Butoxy)-2-(4-(4,4-dimethylpiperidin-1-yl)-2-methyl-5-(quinolin-2-yl)pyridin-3-yl)acetic acid]",11
2,"Cc1ncc(-c2ncc3ccccc3n2)c(N2CCC(C)(C)CC2)c1[C@H](OC(C)(C)C)C(=O)O [Example 267, (S)-2-(tert-Butoxy)-2-(4-(4,4-dimethylpiperidin-1-yl)-2-methyl-5-(quinazolin-2-yl)pyridin-3-yl)acetic acid]",9
3,"Cc1cc(-c2cnc(C)c([C@H](OC(C)(C)C)C(=O)O)c2N2CCC(C)(C)CC2)nnc1OCCc1ccc(F)cc1 [Example 268, (S)-2-(tert-Butoxy)-2-(4-(4,4-dimethylpiperidin-1-yl)-5-(6-(4-fluorophenethoxy)-5-methylpyridazin-3-yl)-2-methylpyridin-3-yl)acetic acid]",50
4,"CC1(C)CCN(c2c(-c3ccc(OCCc4ccc(F)cc4)cn3)cnc(CO)c2[C@H](OC(C)(C)C)C(=O)O)CC1 [Example 269, (S)-2-(tert-Butoxy)-2-(4′-(4,4-dimethylpiperidin-1-yl)-5-(4-fluorophenethoxy)-6′-(hydroxymethyl)-[2, 3′-bipyridin]-5′-yl)acetic acid]",9
5,CCc1ncc(-c2ccc(OCCc3ccc(F)cc3)cn2)c(N2CCC(C)(C)CC2)c1[C@H](OC(C)(C)C)C(=O)O [Example 270],0.6
6,"Cc1ncc(-c2ccc(OCCc3ccc(F)cc3)cn2)c(N2CCC(C)(C)CC2)c1[C@H](OC(C)C)C(=O)O [Example 271, (S)-2-(4′-(4,4-Dimethylpiperidin-1-yl)-5-(4-fluorophenethoxy)-6′-methyl-[2, 3′-bipyridin]-5′-yl)-2-isopropoxyacetic acid]",3
7,"Cc1ncc(-c2ccc(COc3ccccc3)cn2)c(N2CCC(C)(C)CC2)c1[C@H](OC(C)(C)C)C(=O)O [Example 272, (S)-2-(tert-Butoxy)-2-(4′-(4,4-dimethylpiperidin-1-yl)-6′-methyl-5-(phenoxymethyl)-[2, 3′-bipyridin]-5′-yl)acetic acid]",2
8,"Cc1ncc(-c2ccc(CCC(C)C)cn2)c(N2CCC(C)(C)CC2)c1[C@H](OC(C)(C)C)C(=O)O [Example 273, (S)-2-(tert-Butoxy)-2-(4′-(4,4-dimethylpiperidin-1-yl)-5-isopentyl-6′-methyl-[2, 3′-bipyridin]-5′-yl)acetic acid]",4
9,"Cc1ncc(-c2ccc(C(F)(F)CC(C)C)cn2)c(N2CCC(C)(C)CC2)c1[C@H](OC(C)(C)C)C(=O)O [Example 274, (S)-2-(tert-Butoxy)-2-(5-(1,1-difluoro-3-methylbutyl)-4′-(4,4-dimethylpiperidin-1-yl)-6′-methyl-[2, 3′-bipyridin]-5′-yl)acetic acid]",16
10,"Cc1ncc(-c2ccc(OCC(C)C)c(C(F)(F)F)n2)c(N2CCC(C)(C)CC2)c1[C@H](OC(C)(C)C)C(=O)O [Example 275, (S)-2-(tert-Butoxy)-2-(4′-(4,4-dimethylpiperidin-1-yl)-5-isobutoxy-6′-methyl-6-(trifluoromethyl)-[2, 3′-bipyridin]-5′-yl)acetic acid]",8
11,"CCCCC(F)(F)c1ccc(-c2cnc(C)c([C@H](OC(C)(C)C)C(=O)O)c2N2CCC(C)(C)CC2)nc1 [Example 276, (S)-2-(tert-Butoxy)-2-(5-(1,1-difluoropentyl)-4′-(4,4-dimethylpiperidin-1-yl)-6′-methyl-[2, 3′-bipyridin]-5′-yl)acetic acid]",14
12,"CCc1ncc(-c2ccc(OCC(C)C)cn2)c(N2CCC(C)(C)CC2)c1[C@H](OC(C)(C)C)C(=O)O [Example 277, (S)-2-(tert-Butoxy)-2-(4′-(4,4-dimethylpiperidin-1-yl)-6′-ethyl-5-isobutoxy-[2, 3′-bipyridin]-5′-yl)acetic acid]",6
13,"CC(C)COc1ccc(-c2cnc(CF)c([C@H](OC(C)(C)C)C(=O)O)c2N2CCC(C)(C)CC2)nc1 [Example 278, (S)-2-(tert-Butoxy)-2-(4′-(4,4-dimethylpiperidin-1-yl)-6′-(fluoromethyl)-5-isobutoxy-[2, 3′-bipyridin]-5′-yl)acetic acid]",4
14,"CCCCOc1ccc(-c2cnc(CC)c([C@H](OC(C)(C)C)C(=O)O)c2N2CCC(C)(C)CC2)nc1 [Example 279, (S)-2-(tert-Butoxy)-2-(5-butoxy-4′-(4,4-dimethylpiperidin-1-yl)-6′-ethyl-[2, 3′-bipyridin]-5′-yl)acetic acid]",6
15,"Cc1ncc(-c2cccc(OCCc3ccc(F)cc3)n2)c(N2CCC(C)(C)CC2)c1[C@H](OC(C)(C)C)C(=O)O [Example 280, (S)-2-(tert-Butoxy)-2-(4′-(4,4-dimethylpiperidin-1-yl)-6-(4-fluorophenethoxy)-6′-methyl-[2, 3′-bipyridin]-5′-yl)acetic acid]",20
16,"Cc1cccc(Cl)c1COc1ccc(-c2cnc(C)c([C@H](OC(C)(C)C)C(=O)O)c2N2CCC(C)(C)CC2)nc1 [Example 283, (S)-2-(tert-Butoxy)-2-(5-((2-chloro-6-methylbenzyl)oxy)-4′-(4,4-dimethylpiperidin-1-yl)-6′-methyl-[2, 3′-bipyridin]-5′-yl)acetic acid]",3
17,"Cc1cccc(Cl)c1CCOc1ccc(-c2cnc(C)c([C@H](OC(C)(C)C)C(=O)O)c2N2CCC(C)(C)CC2)nc1 [Example 284, (S)-2-(tert-Butoxy)-2-(5-(2-chloro-6-methylphenethoxy)-4′-(4,4-dimethylpiperidin-1-yl)-6′-methyl-[2, 3′-bipyridin]-5′-yl)acetic acid]",3
18,"Cc1ncc(-c2ccc(OCCc3ccccc3)cn2)c(N2CCC(C)(C)CC2)c1[C@H](OC(C)(C)C)C(=O)O [Example 285, (S)-2-(tert-Butoxy)-2-(4′-(4,4-dimethylpiperidin-1-yl)-6′-methyl-5-phenethoxy-[2, 3′-bipyridin]-5′-yl)acetic acid]",0.6
19,"Cc1cc(F)ccc1CCOc1ccc(-c2cnc(C)c([C@H](OC(C)(C)C)C(=O)O)c2N2CCC(C)(C)CC2)nc1 [Example 286, (S)-2-(tert-Butoxy)-2-(4′-(4,4-dimethylpiperidin-1-yl)-5-(4-fluoro-2-methylphenethoxy)-6′-methyl-[2, 3′-bipyridin]-5′-yl)acetic acid]",1
20,"Cc1ncc(-c2ccc(O)cn2)c(N2CCC(C)(C)CC2)c1[C@H](OC(C)(C)C)C(=O)O [Example 287, (S)-2-(tert-Butoxy)-2-(4′-(4,4-dimethylpiperidin-1-yl)-5-hydroxy-6′-methyl-[2, 3′-bipyridin]-5′-yl)acetic acid]",379
21,"Cc1ncc(-c2ccc(OCc3ccccc3)cn2)c(N2CCC(C)(C)CC2)c1[C@H](OC(C)(C)C)C(=O)O [Example 288, (S)-2-(5-(Benzyloxy)-4′-(4,4-dimethylpiperidin-1-yl)-6′-methyl-[2, 3′-bipyridin]-5′-yl)-2-(tert-butoxy)acetic acid]",1
22,"Cc1ccccc1CCOc1ccc(-c2cnc(C)c([C@H](OC(C)(C)C)C(=O)O)c2N2CCC(C)(C)CC2)nc1 [Example 289, (2S)-2-(tert-butoxy)-2-[4′-(4,4-dimethylpiperidin-1-yl)-6′-methyl-5-[2-(2-methylphenyl)ethoxy]-[2,3′-bipyridine]-5′-yl]acetic acid]",1
23,"Cc1cccc(CCOc2ccc(-c3cnc(C)c([C@H](OC(C)(C)C)C(=O)O)c3N3CCC(C)(C)CC3)nc2)c1 [Example 290, (2S)-2-(tert-butoxy)-2-[4′-(4,4-dimethylpiperidin-1-yl)-6′-methyl-5-[2-(3-methylphenyl)ethoxy]-[2,3′-bipyridine]-5′-yl]acetic acid]",1
24,"COc1ccc(CCOc2ccc(-c3cnc(C)c([C@H](OC(C)(C)C)C(=O)O)c3N3CCC(C)(C)CC3)nc2)cc1C [Example 291, (2S)-2-(tert-butoxy)-2-[4′-(4,4-dimethylpiperidin-1-yl)-5-[2-(4-methoxy-3-methylphenyl)ethoxy]-6′-methyl-[2,3′-bipyridine]-5′-yl]acetic acid]",2
25,"COc1ccc(CCOc2ccc(-c3cnc(C)c([C@H](OC(C)(C)C)C(=O)O)c3N3CCC(C)(C)CC3)nc2)c(C)c1 [Example 292, (2S)-2-(tert-butoxy)-2-[4′-(4,4-dimethylpiperidin-1-yl)-5-[2-(4-methoxy-2-methylphenyl)ethoxy]-6′-methyl-[2,3′-bipyridine]-5′-yl]acetic acid]",2
26,"COc1ccc(CCOc2ccc(-c3cnc(C)c([C@H](OC(C)(C)C)C(=O)O)c3N3CCC(C)(C)CC3)nc2)cc1 [Example 293, (2S)-2-(tert-butoxy)-2-[4′-(4,4-dimethylpiperidin-1-yl)-5-[2-(4-methoxyphenyl)ethoxy]-6′-methyl-[2,3′-bipyridine]-5′-yl]acetic acid]",1
27,"Cc1cc(CCOc2ccc(-c3cnc(C)c([C@H](OC(C)(C)C)C(=O)O)c3N3CCC(C)(C)CC3)nc2)ccc1F [Example 294, (2S)-2-(tert-butoxy)-2-[4′-(4,4-dimethylpiperidin-1-yl)-5-[2-(4-fluoro-3-methylphenyl)ethoxy]-6′-methyl-[2,3′-bipyridine]-5′-yl]acetic acid]",2
28,"Cc1ccc(F)cc1CCOc1ccc(-c2cnc(C)c([C@H](OC(C)(C)C)C(=O)O)c2N2CCC(C)(C)CC2)nc1 [Example 295, (2S)-2-(tert-butoxy)-2-[4′-(4,4-dimethylpiperidin-1-yl)-5-[2-(5-fluoro-2-methylphenyl)ethoxy]-6′-methyl-[2,3′-bipyridine]-5′-yl]acetic acid]",2
29,"COc1ccccc1CCOc1ccc(-c2cnc(C)c([C@H](OC(C)(C)C)C(=O)O)c2N2CCC(C)(C)CC2)nc1 [Example 296, (2S)-2-(tert-butoxy)-2-[4′-(4,4-dimethylpiperidin-1-yl)-5-[2-(2-methoxyphenyl)ethoxy]-6′-methyl-[2,3′-bipyridine]-5′-yl]acetic acid]",2
